Laboratory results: patent publication US5998438A, “5-cyclo indole compounds” (Allelix Biopharmaceuticals, Inc., priority 1997, dated 1999)
Where two headings read alike, the source gives them in different places.

Target: T1, 5-HT1D-like receptor (Oryctolagus cuniculus, UniProt P49144)
T1 construct: Ring segments of the vein (4-5 mm in length) were cut and the endothelium gently removed; from tissue; host or cells: saphenous vein rings (endothelium removed) of male New Zealand White rabbits
Assay: Agonist assay: contraction of rabbit isolated saphenous vein (5-HT1D-like receptor agonist activity)
Design: species or system rabbit (male New Zealand White)

[1] = rabbit isolated saphenous vein ring segments, concentration causing 50% of the maximum contraction effected by the compound, with prazosin, idazoxan and indomethacin, 37° C., pH 7.4, read-out: EC50

T1 sequence (P49144 whole entry): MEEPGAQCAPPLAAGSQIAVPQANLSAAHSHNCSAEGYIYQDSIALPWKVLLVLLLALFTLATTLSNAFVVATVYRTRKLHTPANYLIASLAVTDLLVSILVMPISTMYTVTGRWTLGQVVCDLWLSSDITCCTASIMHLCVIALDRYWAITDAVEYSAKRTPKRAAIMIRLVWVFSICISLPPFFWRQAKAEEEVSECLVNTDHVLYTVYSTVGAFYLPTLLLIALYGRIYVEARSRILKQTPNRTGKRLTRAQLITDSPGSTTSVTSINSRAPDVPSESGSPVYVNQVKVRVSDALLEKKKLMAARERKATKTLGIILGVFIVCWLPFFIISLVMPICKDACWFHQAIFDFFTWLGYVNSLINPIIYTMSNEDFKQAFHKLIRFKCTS

Row | SMILES | EC50 [nM] | EC50 [1] [nM]
1 | CN(C)CCc1c[nH]c2ccc(C3=CCCCC3)cc12 [Example 9a, 5-(Cyclohex-1-en-1-yl)-3-[2-(N,N-dimethylamino)ethyl]-1H-indole] | 960 | –
2 | CN(C)CCc1c[nH]c2ccc(C3CCCCO3)cc12 (centres unmarked) [Example 9b, 3-[2-(N,N-Dimethylamino)ethyl]-5-(tetrahydropyran-2-yl)-1H-indole] | 160 | –
3 | C1=C(c2ccc3[nH]cc(CCN4CCCC4)c3c2)CCN(Cc2ccccc2)C1 [Example 15, 5-(1-Aza-1-benzylcyclohex-3-en-4-yl)-3-(2-pyrrolidinylethyl)-1H-indole] | – | 220
4 | CN(C)CCc1c[nH]c2ccc(C3CCCCC3)cc12 [Example 17a, 5-Cyclohexyl-3-[2-(N,N-dimethylamino)ethyl]-1H-indole] | 250 | –
5 | CN1CCC[C@H]1Cc1c[nH]c2ccc(C3CCN(C(=O)OC(C)(C)C)CC3)cc12 [Example 17d, (S)-5-(1-Aza-1-tert-butoxycarbonylcyclohex-4-yl)-3-[(N-methylpyrrolidin-2-yl)methyl]-1H-indole] | – | 750
